The source of these data is US8193191B2, “Urotensin II receptor antagonists” (Janssen Pharmaceutica N.V., priority 2006, dated 2012).

Usually IC50 stands for the concentration that inhibits the measured activity by half. The Ki is the equilibrium dissociation constant of an inhibitor or competing ligand from its target.

Experiment [1] concerns the target T1, Human UII receptor, 6D9 human rhabdomyosarcoma cells (Homo sapiens, UniProt Q9UKP6).
T1 construct: 6D9: isolated by dilution subcloning of RMS13 cells, ATCC® Number: CRL-2061; host or cells: 6D9 human rhabdomyosarcoma cells (subclone of RMS13)
T1 sequence (Q9UKP6 1-389): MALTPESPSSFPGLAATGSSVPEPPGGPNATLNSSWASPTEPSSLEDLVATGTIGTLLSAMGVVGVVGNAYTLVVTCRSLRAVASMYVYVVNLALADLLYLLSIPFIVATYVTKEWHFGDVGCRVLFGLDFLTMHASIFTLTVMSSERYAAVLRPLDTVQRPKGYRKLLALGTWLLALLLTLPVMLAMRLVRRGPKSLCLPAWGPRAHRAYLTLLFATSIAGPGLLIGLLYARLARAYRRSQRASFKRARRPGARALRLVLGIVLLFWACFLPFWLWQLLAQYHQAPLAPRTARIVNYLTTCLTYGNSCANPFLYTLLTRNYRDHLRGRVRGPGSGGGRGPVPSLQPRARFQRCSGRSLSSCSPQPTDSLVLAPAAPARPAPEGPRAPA
Put plainly: Human UII Calcium Mobilization Assay. The experiment is classed as cell-based. Conditions: average value, FLIPR TETRA, read-out: Human UII Ca^+ Mobilization Average IC50. Put shortly:
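FLIPR calcium responses were recorded for 4 minutes after room-temperature addition of test antagonist and U-II, in dye-loaded human 6D9 cells (37° C, 45 min; HBSS/HEPES with probenecid 1.25 mM). Compounds serially diluted in HBSS/HEPES, up to 0.1% DMSO; curves gave IC50 and EC50.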
(A change in cytosolic calcium serves as a functional read-out for many receptors and channels.)

For experiment [2], the target named is T2, endogenous human UII receptor (Homo sapiens, UniProt Q9UKP6).
T2 sequence (Q9UKP6 1-389): T1 sequence (Q9UKP6 1-389)
Put plainly: Human Radioligand Binding Assay ((^125I)-U-II binding to human skeletal muscle myoblasts).

Experiment [3] deals with T3, rat GPR14 (U-II receptor) (Rattus norvegicus, UniProt P49684).
T3 construct: expressed in transfected cells
T3 sequence (P49684 1-386): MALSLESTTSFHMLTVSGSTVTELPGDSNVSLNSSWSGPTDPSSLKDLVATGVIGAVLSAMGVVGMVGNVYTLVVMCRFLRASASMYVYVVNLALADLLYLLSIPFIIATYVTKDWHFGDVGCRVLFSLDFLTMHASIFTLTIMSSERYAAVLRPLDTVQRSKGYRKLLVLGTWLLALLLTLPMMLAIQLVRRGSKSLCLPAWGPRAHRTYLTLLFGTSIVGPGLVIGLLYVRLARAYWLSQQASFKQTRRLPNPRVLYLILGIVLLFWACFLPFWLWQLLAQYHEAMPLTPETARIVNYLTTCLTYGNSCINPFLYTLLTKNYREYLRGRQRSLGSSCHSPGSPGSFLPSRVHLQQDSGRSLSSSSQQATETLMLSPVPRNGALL
Nature of the experiment: Rat UII Calcium Mobilization FLIPR Assay. Conditions: average value for the compound tested; read-out: Rat UII FLIPR Average IC50. The format is cell-based. Put shortly:
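Fluorescent calcium signals were recorded at room temperature (23° C) by FLIPR. Stable rat U-II receptor CHO lines had been dye-loaded for 1 h at 37° C in pH 7.4 HBSS containing 20 mM HEPES, 0.1% BSA and 2.5 mM probenecid.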

Setting [4] is: read-out: Human UII Average Binding Ki, average value, (^125I)-U-II binding to human skeletal muscle myoblasts (HSMM), 25° C., 3 h.

Molecules are shown by their SMILES. Where two headings read alike, the source gives them in different places.

Regarding `COc1ccc([C@@H](CCCNC(=O)c2cc(C)on2)N2C(=O)c3cccc(N4CCN([C@H](C)c5ccccc5)CC4)c3C2=O)cc1OC` [Cpd 159, (R)-5-methyl-isoxazole-3-carboxylic acid (4-(3,4-dimethoxy-phenyl)-4-{1,3-dioxo-4-[4-(1R)-(1-phenyl-ethyl)-piperazin-1-yl]-1,3-dihydro-isoindol-2-yl}-butyl)-amide], the IC50 came to 750 nM in experiment [1] and 34 nM in experiment [3]. The affinity in experiment [2] corresponds to a Ki of 150 nM.
For `COc1ccc([C@@H](CCCNC(=O)c2ccnnc2)N2C(=O)c3cccc(N4CCN([C@H](C)c5ccccc5)CC4)c3C2=O)cc1OC` [Cpd 160, (R)-pyridazine-4-carboxylic acid (4-(3,4-dimethoxy-phenyl)-4-{1,3-dioxo-4-[4-(1R)-(1-phenyl-ethyl)-piperazin-1-yl]-1,3-dihydro-isoindol-2-yl}-butyl)-amide], the IC50 in experiment [1] was 400 nM; in experiment [3], 12 nM. Moreover, the inhibitory constant (Ki) in experiment [2] stood at 140 nM.
Regarding `COc1ccc([C@@H](CCCNC(=O)c2nccn2C)N2C(=O)c3cccc(N4CCN([C@H](C)c5ccccc5)CC4)c3C2=O)cc1OC` [Cpd 161, (R)-1-methyl-1H-imidazole-2-carboxylic acid (4-(3,4-dimethoxy-phenyl)-4-{1,3-dioxo-4-[4-(1R)-(1-phenyl-ethyl)-piperazin-1-yl]-1,3-dihydro-isoindol-2-yl}-butyl)-amide], the IC50 in experiment [1] turned out to be 630 nM; in experiment [3] it was 19 nM. The Ki in experiment [2] stood at 120 nM.
On the same counts, the results for `COc1ccc([C@@H](CCCNC(=O)c2cc(C)c(C)o2)N2C(=O)c3cccc(N4CCN([C@H](C)c5ccccc5)CC4)c3C2=O)cc1OC` [Cpd 162, (R)-4,5-dimethyl-furan-2-carboxylic acid (4-(3,4-dimethoxy-phenyl)-4-{1,3-dioxo-4-[4-(1R)-(1-phenyl-ethyl)-piperazin-1-yl]-1,3-dihydro-isoindol-2-yl}-butyl)-amide] are 430 nM, 35 nM and 170 nM.
The corresponding values for `COc1ccc([C@@H](CCCNC(=O)c2cscn2)N2C(=O)c3cccc(N4CCN([C@H](C)c5ccccc5)CC4)c3C2=O)cc1OC` [Cpd 163, (R)-thiazole-4-carboxylic acid (4-(3,4-dimethoxy-phenyl)-4-{1,3-dioxo-4-[4-(1R)-(1-phenyl-ethyl)-piperazin-1-yl]-1,3-dihydro-isoindol-2-yl}-butyl)-amide] are 500 nM, 15 nM and 95 nM.
Regarding `COc1ccc([C@@H](CCCNC(=O)c2c(C)noc2C)N2C(=O)c3cccc(N4CCN([C@H](C)c5ccccc5)CC4)c3C2=O)cc1OC` [Cpd 164, (R)-3,5-dimethyl-isoxazole-4-carboxylic acid (4-(3,4-dimethoxy-phenyl)-4-{1,3-dioxo-4-[4-(1R)-(1-phenyl-ethyl)-piperazin-1-yl]-1,3-dihydro-isoindol-2-yl}-butyl)-amide], the 50% inhibitory concentration (IC50) in experiment [1] was found to be 300 nM; in experiment [3], 13 nM. Besides, in experiment [2], the affinity corresponds to a Ki of 100 nM.
For the compound `COc1ccc([C@@H](CCCNC2=CCCN2)N2C(=O)c3cccc(N4CCN([C@H](C)c5ccccc5)CC4)c3C2=O)cc1OC` [Cpd 165, (R)-2-[4-(4,5-dihydro-1H-pyrrol-2-ylamino)-1-(3,4-dimethoxy-phenyl)-butyl]-4-[4-(1R)-(1-phenyl-ethyl)-piperazin-1-yl]-isoindole-1,3-dione], the IC50 in experiment [1] worked out at 1100 nM; in experiment [3] it was 18 nM. This compound also registered a Ki in experiment [2] of 350 nM.
Turning to `COc1ccc([C@@H](CCCNC(C)=N)N2C(=O)c3cccc(N4CCN([C@H](C)c5ccccc5)CC4)c3C2=O)cc1OC` [Cpd 166, (R)-N-(4-(3,4-dimethoxy-phenyl)-4-{1,3-dioxo-4-[4-(1R)-(1-phenyl-ethyl)-piperazin-1-yl]-1,3-dihydro-isoindol-2-yl}-butyl)-acetamidine], the IC50 amounted to 2600 nM in experiment [1] and 26 nM in experiment [3]. Besides, the affinity in experiment [2] corresponds to a Ki of 510 nM.
For `COc1ccc([C@@H](CCCNS(=O)(=O)c2cccs2)N2C(=O)c3cccc(N4CCNCC4)c3C2=O)cc1OC` [Cpd 167, (R)-thiophene-2-sulfonic acid [4-(3,4-dimethoxy-phenyl)-4-(1,3-dioxo-4-piperazin-1-yl-1,3-dihydro-isoindol-2-yl)-butyl]-amide], the IC50 in experiment [1] amounted to 500 nM; in experiment [3], 40 nM. Besides, the Ki in experiment [2] (setting [4]) is 150 nM.
As for `CCN1CCN(c2cccc3c2C(=O)N([C@H](CCCNS(=O)(=O)c2cccs2)c2ccc(OC)c(OC)c2)C3=O)CC1` [Cpd 168, (R)-thiophene-2-sulfonic acid {4-(3,4-dimethoxy-phenyl)-4-[4-(4-ethyl-piperazin-1-yl)-1,3-dioxo-1,3-dihydro-isoindol-2-yl]-butyl}-amide], the IC50 in experiment [1] amounted to 150 nM; in experiment [3], 4.8 nM. In experiment [2] (setting [4]), the Ki worked out at 35 nM.
The corresponding values for `COc1ccc([C@@H](CCCNS(=O)(=O)c2cccs2)N2C(=O)c3cccc(N4CCN(C)CC4)c3C2=O)cc1OC` [Cpd 169, (R)-thiophene-2-sulfonic acid {4-(3,4-dimethoxy-phenyl)-4-[4-(4-methyl-piperazin-1-yl)-1,3-dioxo-1,3-dihydro-isoindol-2-yl]-butyl}-amide] are 220 nM, 16 nM and 59 nM.
Take `COc1ccc([C@@H](CCCNS(=O)(=O)c2cccs2)N2C(=O)c3cccc(N4CCN(Cc5ccoc5)CC4)c3C2=O)cc1OC` [Cpd 170, (R)-thiophene-2-sulfonic acid {4-(3,4-dimethoxy-phenyl)-4-[4-(4-furan-3-ylmethyl-piperazin-1-yl)-1,3-dioxo-1,3-dihydro-isoindol-2-yl]-butyl}-amide]: the IC50 in experiment [1] came to 410 nM; in experiment [3], 8.4 nM. Besides, affinity in experiment [2] was put at a Ki of 31 nM.
On the same counts, the results for `COc1ccc([C@@H](CCCNS(=O)(=O)c2cccs2)N2C(=O)c3cccc(N4CCN(Cc5cccnc5)CC4)c3C2=O)cc1OC` [Cpd 171, (R)-thiophene-2-sulfonic acid {4-(3,4-dimethoxy-phenyl)-4-[1,3-dioxo-4-(4-pyridin-3-ylmethyl-piperazin-1-yl)-1,3-dihydro-isoindol-2-yl]-butyl}-amide] are 1000 nM, 11 nM and 370 nM.
Regarding `COc1ccc([C@@H](CCCNS(=O)(=O)c2cccs2)N2C(=O)c3cccc(N4CCN(Cc5ccsc5)CC4)c3C2=O)cc1OC` [Cpd 172, (R)-thiophene-2-sulfonic acid {4-(3,4-dimethoxy-phenyl)-4-[1,3-dioxo-4-(4-thiophen-3-ylmethyl-piperazin-1-yl)-1,3-dihydro-isoindol-2-yl]-butyl}-amide], the IC50 in experiment [1] came to 220 nM; in experiment [3], 11 nM. Moreover, the Ki in experiment [2] was determined as 26 nM.
`COc1ccc([C@@H](CCCNC(=O)C2CCOC2)N2C(=O)c3cccc(N4CCN([C@H](C)c5ccccc5)CC4)c3C2=O)cc1OC` (stereo partly drawn) [Cpd 173, (R)-tetrahydro-furan-3-carboxylic acid (4-(3,4-dimethoxy-phenyl)-4-{1,3-dioxo-4-[4-(1R)-(1-phenyl-ethyl)-piperazin-1-yl]-1,3-dihydro-isoindol-2-yl}-butyl)-amide]: the IC50 amounted to 800 nM in experiment [1] and 11 nM in experiment [3]. For the same compound, the inhibition constant (Ki) in experiment [2] came out at 66 nM.
The corresponding values for `COc1ccc([C@@H](CCCNC(=O)C(C)C)N2C(=O)c3cccc(N4CCN([C@H](C)c5ccccc5)CC4)c3C2=O)cc1OC` [Cpd 174, (R)-N-(4-(3,4-dimethoxy-phenyl)-4-{1,3-dioxo-4-[4-(1R)-(1-phenyl-ethyl)-piperazin-1-yl]-1,3-dihydro-isoindol-2-yl}-butyl)-isobutyramide] are 620 nM, 11 nM and 19 nM.
With `COCC(=O)NCCC[C@H](c1ccc(OC)c(OC)c1)N1C(=O)c2cccc(N3CCN([C@H](C)c4ccccc4)CC3)c2C1=O` [Cpd 175, (R)-N-(4-(3,4-dimethoxy-phenyl)-4-{1,3-dioxo-4-[4-(1R)-(1-phenyl-ethyl)-piperazin-1-yl]-1,3-dihydro-isoindol-2-yl}-butyl)-2-methoxy-acetamide], the IC50 was 410 nM in experiment [1] and 6.1 nM in experiment [3]. The compound also returned a Ki in experiment [2] of 26 nM.
